Assay results published in patent publication US20260355274A1 (Onkure, Inc., priority 2022, published 2026).

Experiments:
[1] = system: SKMEL2 melanoma cell line; assay: 72 hour proliferation assay (CellTiter-Glo), SKMEL2 melanoma, NRAS mutated; format: cell-based; conditions: combined with binimetinib
Procedure: (§1) In particular, cells are grown in multi-well plates and incubated with the OKI-005 and binimetinib for 72 hours. The number of viable cells is determined by luminescence readout after the addition of CellTiter-Glo (CTG) dye.
In particular, in FIGS. 9A and 9B, cells are grown in multi-well plates and incubated with the OKI-005 and binimetinib for 72 hours. The number of viable cells is determined by luminescence readout after the addition of CellTiter-Glo (CTG) dye. SEM is the standard error of the mean, […]

[2] = system: AGS human gastric adenocarcinoma hyperdiploid cell line; assay: 72 hour proliferation assay (CellTiter-Glo), AGS, KRAS G12D; format: cell-based
Procedure: as §1
(§2) FIGS. 12A, 12B and 12C illustrate the results of studies of the combination of OKI-005 with each of binimetinib, GDC-0994 and sotorasib in the NCI-H358 (NSCLC KRAS^G12C) cell line. FIGS. 12D, 12E and 12F illustrate the results of studies of the combination of OKI-005 with each of binimetinib, GDC-0994 and MRTX1133 (a KRAS^G12D Inhibitor) in the AGS (Gastric KRAS^G12D) cell line. […] In particular, cells are grown in multi-well plates and incubated with the OKI-005 and binimetinib for 72 hours. The number of viable cells is determined by luminescence readout after the addition of CellTiter-Glo (CTG) dye.

[3] = system: NCI-H358 non-small cell lung cancer cell line; assay: 72 hour proliferation assay (CellTiter-Glo), NCI-H358, KRAS G12C; format: cell-based
Procedure: as §1, §2

[4] = system: human uveal melanoma cell line 92-1; assay: 72 hour proliferation assay (CellTiter-Glo), uveal melanoma 92-1; format: cell-based; conditions: combined with binimetinib, GNAQ/11 Q209L
Procedure: as §1

[5] = system: human uveal melanoma cell line MP46; assay: 72 hour proliferation assay (CellTiter-Glo), uveal melanoma MP46; format: cell-based; conditions: combined with binimetinib, GNAQ/11 Q209L
Procedure: as §1

[6] = system: RAS mutated cell lines and RAS WT cell lines; assay: 72-hour proliferation assay, RAS mutated versus RAS wild-type cell lines; format: cell-based; conditions: combined with binimetinib, physiologically relevant concentrations, Day 3 compared to Day 0
Excerpt: . The RAS mutated cell lines and the RAS WT cell lines involved in this study represent conventional and well known cell lines for this purpose. See, e.g., FIG. 16.

[7] = system: MGMT-positive human tumor cell lines versus MGMT-negative human tumor cell lines; assay: synergy in MGMT-positive versus MGMT-negative tumor cell lines; format: cell-based; conditions: combination with binimetinib compared to OKI-005 or binimetinib alone
[8] = metabolism to active compound; conditions: to OKI-006
Excerpt: The following figures are illustrative of specific embodiments of the invention and are not intended to otherwise limit the scope of the invention as described herein. OKI-005 is an in vitro optimized tool compound. […] In the figures, “bini” is equivalent to binimetinib (a MEK 1/2 inhibitor) and “enco” is equivalent to encorafenib (a BRAF inhibitor).

SKMEL2 xenograft = assay: SKMEL2 NRAS mutated xenograft, tumor growth and regressions; format: in vivo, mouse; conditions: for tumor growth delay and regressions: single agent, SKMEL2 NRAS mutated xenograft
Excerpt: (§3) As used herein, “Son/2off” refers to a dosing schedule of 5 days on and 2 days off each week. […] Glyceraldehyde 3-phosphate dehydrogenase (GAPDH) was used as a control.

Ac-H3K9 = Ac-H3K9 in SKMEL2 tumors (HDACi PD); format: in vivo; conditions: 2 hours post dose
Excerpt: as §3

[9] = system: HT29 BRAF^V600E colorectal (CRC) xenografts; assay: HT29 BRAF V600E colorectal xenografts, regressions; format: in vivo, mouse; conditions: combined with binimetinib and encorafenib, following two weeks of dosing
[10] = mouse body weight change, HT29 xenograft study; format: in vivo; conditions: combined with binimetinib and encorafenib, up to 15 days after randomization
[11] = system: NCI-H358 KRAS^G12C non-small cell lung cancer xenografts; assay: NCI-H358 KRAS G12C NSCLC xenografts, regressions; format: in vivo, mouse; conditions: combined with sotorasib, 50-day period after dosing
Excerpt: As used herein, “4on/3off” refers to a dosing schedule of 4 days on and 3 days off each week.

[12] = system: RAS-pathway mutated models; assay: preclinical activity in RAS-pathway mutated models; format: in vivo; conditions: in combination with binimetinib
Excerpt: As an example of the frequency of mutations associated with various cancers, mutations in NRAS account for 20% of all melanomas and affect approximately 65,000 patients worldwide. Such melanomas have a tendency to be more aggressive than their wild-type counterparts and frequently have poor outcomes. Current therapies for NRAS-mutant melanoma remain limited, with little efficacy. No targeted therapies are currently available post PD1i.

advanced cancer patients = assay: maximally-tolerated dose in advanced cancer patients; format: in vivo, human
Excerpt: It will be appreciated that appropriate dosages can vary from patient to patient. Determining the optimal dosage will generally involve the balancing of the level of therapeutic benefit against any risk or deleterious side effects of the treatments described herein. The selected dosage level will depend on a variety of factors including, but not limited to, the activity of the particular compound, the route of administration, the time of administration, the rate of excretion of the compound, the duration of the treatment, other drugs, compounds, or materials used in combination, and the age, sex, weight, condition, general health, and prior medical history of the patient. The amount(s) of the compound(s) administered and the route of administration will ultimately be at the discretion of a physician. […] On Schedule 2, the MTD was 200 mg daily on a continuous dosing regimen and on Schedule 3, the MTD was 300 mg for 5 days on and 2 days off each week.

[13] = system: patients with solid tumors; assay: Phase 1 clinical trials in patients with solid tumors; format: in vivo, human; conditions: Phase 1, single agent, oral
mouse xenograft models = conditions: with binimetinib
HDAC 2 = HDAC 2 (Homo sapiens, UniProt Q92769); assay: enzymatic inhibition of HDAC 2; format: biochemical
Excerpt: (§4) The mammalian HDACs can be divided into four classes depending on their sequence homology, sub-cellular distribution and catalytic activity. Class I, Il and IV HDACs have a Zn^2+ cofactor in the catalytic site. Class III HDACs contain sirtuins 1-7 and are NAD^+-dependent. Class I (HDACs 1, 2, 3 and 8) share the same homology as Rpd3 and are preliminarily distributed in the nucleus of normal cells. Class II HDACs can be subdivided into class IIa HDACs and class Ilb HDACs. Class IIa enzymes (HDAC 4, 5, 7 and 9) shuttle between the nucleus and cytoplasm and are located in specific tissues such as the brain, heart, and muscle. Class IIb (HDACs 6 and 10) are chiefly located in the cytoplasm.

HDAC 8 = HDAC 8 (Homo sapiens, UniProt Q9BY41); assay: enzymatic inhibition of HDAC 8; format: biochemical
Excerpt: as §4

HDAC 4 = HDAC 4 (Homo sapiens, UniProt P56524); assay: enzymatic inhibition of HDAC 4; format: biochemical
Sequence of HDAC 4 (P56524 whole entry): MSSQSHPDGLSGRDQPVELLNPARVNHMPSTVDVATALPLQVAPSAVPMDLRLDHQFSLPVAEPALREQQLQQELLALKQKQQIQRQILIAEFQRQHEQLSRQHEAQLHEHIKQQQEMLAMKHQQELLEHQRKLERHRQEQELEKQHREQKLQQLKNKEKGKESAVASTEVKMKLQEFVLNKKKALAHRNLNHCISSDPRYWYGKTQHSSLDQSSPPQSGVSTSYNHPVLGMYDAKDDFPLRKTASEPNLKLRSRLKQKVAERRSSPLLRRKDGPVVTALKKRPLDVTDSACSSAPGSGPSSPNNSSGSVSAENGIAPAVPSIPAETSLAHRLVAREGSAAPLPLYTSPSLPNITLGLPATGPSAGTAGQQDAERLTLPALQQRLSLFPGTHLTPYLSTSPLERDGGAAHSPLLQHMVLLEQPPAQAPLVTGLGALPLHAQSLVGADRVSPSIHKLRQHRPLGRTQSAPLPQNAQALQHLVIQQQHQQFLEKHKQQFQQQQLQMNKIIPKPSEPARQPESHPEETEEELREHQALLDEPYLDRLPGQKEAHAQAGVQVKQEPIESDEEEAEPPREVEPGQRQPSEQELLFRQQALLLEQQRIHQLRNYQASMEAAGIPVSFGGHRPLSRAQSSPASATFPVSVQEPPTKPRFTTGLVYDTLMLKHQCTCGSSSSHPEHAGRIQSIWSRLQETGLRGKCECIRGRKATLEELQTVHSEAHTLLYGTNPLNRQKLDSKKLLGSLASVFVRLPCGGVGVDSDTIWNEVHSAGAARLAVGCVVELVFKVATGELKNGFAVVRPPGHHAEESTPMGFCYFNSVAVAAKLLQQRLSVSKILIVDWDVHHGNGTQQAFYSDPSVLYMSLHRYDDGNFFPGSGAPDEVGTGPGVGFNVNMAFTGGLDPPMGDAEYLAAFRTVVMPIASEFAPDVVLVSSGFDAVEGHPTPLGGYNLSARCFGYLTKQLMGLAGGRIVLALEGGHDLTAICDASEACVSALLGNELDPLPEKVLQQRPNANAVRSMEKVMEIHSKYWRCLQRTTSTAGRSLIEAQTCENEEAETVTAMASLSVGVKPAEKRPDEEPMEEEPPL
Excerpt: as §4

HDAC 5 = HDAC 5 (Homo sapiens, UniProt Q9UQL6); assay: enzymatic inhibition of HDAC 5; format: biochemical
Sequence of HDAC 5 (Q9UQL6 whole entry): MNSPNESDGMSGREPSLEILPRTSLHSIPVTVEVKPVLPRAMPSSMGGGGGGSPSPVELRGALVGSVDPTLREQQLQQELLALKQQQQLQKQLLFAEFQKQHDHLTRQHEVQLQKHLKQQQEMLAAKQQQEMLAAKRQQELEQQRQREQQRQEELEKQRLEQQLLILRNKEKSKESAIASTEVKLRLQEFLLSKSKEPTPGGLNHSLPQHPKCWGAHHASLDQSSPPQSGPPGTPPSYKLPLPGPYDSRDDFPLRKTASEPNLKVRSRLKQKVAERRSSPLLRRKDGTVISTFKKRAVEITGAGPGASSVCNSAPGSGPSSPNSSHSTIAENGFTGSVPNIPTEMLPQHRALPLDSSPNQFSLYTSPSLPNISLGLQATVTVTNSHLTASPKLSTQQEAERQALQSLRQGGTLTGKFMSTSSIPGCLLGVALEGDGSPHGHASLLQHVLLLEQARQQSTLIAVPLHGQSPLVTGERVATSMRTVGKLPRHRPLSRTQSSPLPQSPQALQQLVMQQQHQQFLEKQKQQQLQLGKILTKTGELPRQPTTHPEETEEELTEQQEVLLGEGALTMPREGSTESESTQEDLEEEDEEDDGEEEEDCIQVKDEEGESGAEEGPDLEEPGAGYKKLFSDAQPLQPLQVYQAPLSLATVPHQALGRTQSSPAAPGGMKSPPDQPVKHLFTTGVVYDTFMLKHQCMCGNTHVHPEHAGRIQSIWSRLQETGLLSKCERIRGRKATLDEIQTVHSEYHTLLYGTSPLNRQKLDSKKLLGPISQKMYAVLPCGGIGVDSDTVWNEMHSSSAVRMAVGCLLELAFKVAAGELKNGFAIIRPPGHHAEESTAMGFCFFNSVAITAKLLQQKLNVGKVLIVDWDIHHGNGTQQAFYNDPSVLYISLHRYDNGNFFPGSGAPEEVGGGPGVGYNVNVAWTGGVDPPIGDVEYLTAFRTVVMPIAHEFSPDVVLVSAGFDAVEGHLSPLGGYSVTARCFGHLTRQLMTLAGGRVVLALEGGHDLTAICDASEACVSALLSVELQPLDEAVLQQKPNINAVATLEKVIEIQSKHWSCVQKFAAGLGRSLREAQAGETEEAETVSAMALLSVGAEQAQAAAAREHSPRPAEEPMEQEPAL
Excerpt: as §4

HDAC 7 = HDAC 7 (Homo sapiens, UniProt Q8WUI4); assay: enzymatic inhibition of HDAC 7; format: biochemical
Sequence of HDAC 7 (Q8WUI4 whole entry): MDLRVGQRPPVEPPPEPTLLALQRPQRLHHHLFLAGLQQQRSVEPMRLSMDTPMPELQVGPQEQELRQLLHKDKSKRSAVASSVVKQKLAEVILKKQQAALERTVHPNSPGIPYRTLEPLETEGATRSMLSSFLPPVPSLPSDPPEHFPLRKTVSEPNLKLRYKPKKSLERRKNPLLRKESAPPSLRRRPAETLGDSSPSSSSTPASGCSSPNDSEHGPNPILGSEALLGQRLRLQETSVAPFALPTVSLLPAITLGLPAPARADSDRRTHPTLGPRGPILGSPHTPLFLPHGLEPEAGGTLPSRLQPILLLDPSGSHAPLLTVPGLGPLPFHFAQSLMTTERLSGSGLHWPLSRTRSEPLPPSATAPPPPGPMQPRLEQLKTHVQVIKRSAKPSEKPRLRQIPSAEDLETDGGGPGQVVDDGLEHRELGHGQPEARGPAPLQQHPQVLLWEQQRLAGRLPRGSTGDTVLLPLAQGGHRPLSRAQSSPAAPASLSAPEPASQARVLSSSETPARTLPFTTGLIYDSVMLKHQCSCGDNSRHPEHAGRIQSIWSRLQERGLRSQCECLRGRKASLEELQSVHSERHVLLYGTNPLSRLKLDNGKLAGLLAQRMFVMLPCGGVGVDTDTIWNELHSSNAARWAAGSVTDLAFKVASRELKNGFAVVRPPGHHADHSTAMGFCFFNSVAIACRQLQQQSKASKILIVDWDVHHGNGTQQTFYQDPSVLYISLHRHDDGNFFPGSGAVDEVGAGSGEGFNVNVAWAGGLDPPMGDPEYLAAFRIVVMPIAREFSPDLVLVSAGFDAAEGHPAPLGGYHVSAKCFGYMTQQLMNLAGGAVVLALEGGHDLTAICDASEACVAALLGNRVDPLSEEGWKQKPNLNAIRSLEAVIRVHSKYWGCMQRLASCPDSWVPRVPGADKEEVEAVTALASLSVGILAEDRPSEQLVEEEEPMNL
Excerpt: as §4

HDAC 9 = HDAC 9 (Homo sapiens, UniProt Q9UKV0); assay: enzymatic inhibition of HDAC 9; format: biochemical
Excerpt: as §4

HDAC 6 = HDAC 6 (Homo sapiens, UniProt Q9UBN7); assay: enzymatic inhibition of HDAC 6; format: biochemical
Sequence of HDAC 6 (Q9UBN7 whole entry): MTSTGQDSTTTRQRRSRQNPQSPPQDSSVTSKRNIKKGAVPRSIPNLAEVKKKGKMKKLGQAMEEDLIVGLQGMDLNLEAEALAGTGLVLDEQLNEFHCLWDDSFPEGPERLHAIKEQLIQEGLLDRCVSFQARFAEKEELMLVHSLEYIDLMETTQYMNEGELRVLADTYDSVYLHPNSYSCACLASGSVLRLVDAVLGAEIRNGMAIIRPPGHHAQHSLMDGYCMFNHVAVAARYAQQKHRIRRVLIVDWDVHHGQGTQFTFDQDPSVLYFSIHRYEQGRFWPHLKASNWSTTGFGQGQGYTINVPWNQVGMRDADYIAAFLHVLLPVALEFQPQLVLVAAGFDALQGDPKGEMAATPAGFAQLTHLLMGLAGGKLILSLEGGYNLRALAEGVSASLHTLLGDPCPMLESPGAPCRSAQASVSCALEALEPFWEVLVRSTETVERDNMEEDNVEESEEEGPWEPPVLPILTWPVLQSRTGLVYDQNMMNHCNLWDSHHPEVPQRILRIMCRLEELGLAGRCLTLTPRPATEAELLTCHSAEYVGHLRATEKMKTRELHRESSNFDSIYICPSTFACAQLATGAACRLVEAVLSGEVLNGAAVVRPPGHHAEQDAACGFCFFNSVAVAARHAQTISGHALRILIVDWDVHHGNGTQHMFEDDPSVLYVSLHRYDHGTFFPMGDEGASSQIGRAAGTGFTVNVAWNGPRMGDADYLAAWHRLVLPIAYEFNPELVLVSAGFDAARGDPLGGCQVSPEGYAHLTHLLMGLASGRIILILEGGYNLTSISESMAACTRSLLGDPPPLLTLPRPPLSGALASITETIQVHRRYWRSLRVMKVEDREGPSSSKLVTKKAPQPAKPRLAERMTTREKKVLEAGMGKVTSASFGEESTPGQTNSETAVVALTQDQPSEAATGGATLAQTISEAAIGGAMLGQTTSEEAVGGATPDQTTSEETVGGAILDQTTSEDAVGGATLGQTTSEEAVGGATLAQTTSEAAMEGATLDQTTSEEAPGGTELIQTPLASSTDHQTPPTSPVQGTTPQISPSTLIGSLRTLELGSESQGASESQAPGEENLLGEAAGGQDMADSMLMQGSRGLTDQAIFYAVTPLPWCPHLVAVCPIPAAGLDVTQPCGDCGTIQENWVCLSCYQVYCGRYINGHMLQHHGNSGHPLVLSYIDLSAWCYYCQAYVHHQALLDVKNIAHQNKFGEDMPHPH
Excerpt: as §4

HDAC 10 = HDAC 10 (Homo sapiens, UniProt Q969S8); assay: enzymatic inhibition of HDAC 10; format: biochemical; conditions: HDAC 10, Class IIb
Sequence of HDAC 10 (Q969S8 whole entry): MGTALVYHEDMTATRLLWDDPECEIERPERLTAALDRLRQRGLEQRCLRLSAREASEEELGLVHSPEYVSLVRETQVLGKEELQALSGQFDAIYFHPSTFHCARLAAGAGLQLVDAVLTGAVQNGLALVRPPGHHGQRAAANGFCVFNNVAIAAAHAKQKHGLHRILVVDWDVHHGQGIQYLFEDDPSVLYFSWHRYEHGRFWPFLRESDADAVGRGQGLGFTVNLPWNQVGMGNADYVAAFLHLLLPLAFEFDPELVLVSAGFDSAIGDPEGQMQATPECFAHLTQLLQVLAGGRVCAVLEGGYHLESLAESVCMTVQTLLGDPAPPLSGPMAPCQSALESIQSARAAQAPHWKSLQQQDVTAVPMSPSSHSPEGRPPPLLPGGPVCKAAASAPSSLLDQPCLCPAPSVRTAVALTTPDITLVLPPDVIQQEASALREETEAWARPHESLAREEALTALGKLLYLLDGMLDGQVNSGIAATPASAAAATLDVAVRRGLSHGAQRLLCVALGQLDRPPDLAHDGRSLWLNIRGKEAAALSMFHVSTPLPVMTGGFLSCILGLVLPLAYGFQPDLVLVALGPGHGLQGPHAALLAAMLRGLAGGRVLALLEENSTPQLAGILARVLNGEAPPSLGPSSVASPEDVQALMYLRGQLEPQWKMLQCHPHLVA
Excerpt: as §4

HDAC 11 = HDAC 11 (Homo sapiens, UniProt Q96DB2); assay: enzymatic inhibition of HDAC 11; format: biochemical; conditions: HDAC 11, Class IV
Excerpt: as §4

pERK = pERK in SKMEL2 tumors (MEKi PD); format: in vivo; conditions: 2 hours post dose
Excerpt: as §3

[14] = system: KRAS^G12C pancreatic cancer; conditions: single-agent RAS pathway inhibition; cited from earlier work
[15] = system: KRAS^G12C colorectal cancer (CRC); conditions: single-agent RAS pathway inhibition; cited from earlier work
BRAF^V600E melanoma = conditions: single-agent RAS pathway inhibition; cited from earlier work
[16] = system: BRAF^V600E colorectal cancer (CRC); conditions: single-agent RAS pathway inhibition; cited from earlier work
[17] = combined with binimetinib, 72 hours, KRAS

CCCCCCCC(=O)SCC/C=C/[C@@H]1CC(=O)NCc2nc(cs2)C(=O)NC(C)(C)C(=O)N[C@@H](C(C)C)C(=O)O1 [OKI-005]
anti-proliferative activity, synergy ([1]; 72 hours, NRAS): synergistic anti-proliferative activity | cell growth inhibition and cell death (PARP cleavage) ([1]; NRAS-mutated SKMEL2): significant cell growth inhibition and cell death | Loewe synergy ([2]; combined with GDC-0994, KRAS^G12D): combination synergy was observed in all cases | Loewe synergy ([2]; combined with MRTX1133, KRAS^G12D): combination synergy was observed in all cases | anti-proliferative activity, synergy [2, 17]: synergistic anti-proliferative activity | Loewe synergy ([2]; combined with binimetinib, 72 hours, KRAS^G12D): combination synergy was observed in all cases | Loewe synergy ([3]; combined with GDC-0994, KRAS^G12C): combination synergy was observed in all cases | anti-proliferative activity, synergy [3, 17]: synergistic anti-proliferative activity | Loewe synergy ([3]; combined with binimetinib, 72 hours, KRAS^G12C): combination synergy was observed in all cases | Loewe synergy ([3]; combined with sotorasib, KRAS^G12C): combination synergy was observed in all cases | anti-proliferative activity, synergy [4]: synergistic anti-proliferative activity | anti-proliferative activity, synergy [5]: synergistic anti-proliferative activity | synergy, RAS mutated compared to RAS wild-type [6]: a superior effect greater than that of either agent alone | synergistic effects in MGMT-positive versus MGMT-negative cell lines [7]: synergistic effects | metabolism to active compound [8]: metabolized to the same active compound, OKI-006

CC(C)[C@H](N)C(=O)SCC/C=C/[C@@H]1CC(=O)NCc2nc(cs2)C(=O)NC(C)(C)C(=O)N[C@@H](C(C)C)C(=O)O1.O=S(=O)(O)c1ccccc1 [OKI-179]
regressions (SKMEL2 xenograft; combination with binimetinib versus either single agent, following two weeks of dosing): significantly increased regressions compared to either single agent | tumor growth delay and regressions (SKMEL2 xenograft): tumor growth delay, but few regressions | on-target PD activity, Ac-H3K9 (HDACi PD) (Ac-H3K9): strong on-target PD activity | regressions [9]: significantly increased regressions compared to either OKI-179 alone or the combination of binimetinib and encorafenib | mouse body weight loss [10]: greater weight loss than either OKI-179 alone or the combination of binimetinib and encorafenib | regressions [11]: significantly increased regressions compared to either OKI-179 or sotorasib alone | regressions [12]: regressions in multiple RAS-pathway mutated models | recommended Phase 2 dose (RP2D) (advanced cancer patients; Schedule 1, oral, 4 days on and 3 days off each week): 300 mg | MTD (advanced cancer patients; Schedule 1, oral, daily, 4 days on and 3 days off each week): 450 mg | MTD (advanced cancer patients; Schedule 2, oral, daily, continuous dosing regimen): 200 mg | MTD (advanced cancer patients; Schedule 3, oral, 5 days on and 2 days off each week): 300 mg | pharmacodynamic activity [13]: strong pharmacodynamic activity at tolerated doses | metabolism to active compound [8]: metabolized to the same active compound, OKI-006 | synergy at physiologically-relevant doses (mouse xenograft models): synergy associated with OKI-179 and binimetinib occurs at physiologically-relevant doses of OKI-179

C/C=C1\NC(=O)[C@@H](CS)NC(=O)[C@@H](C(C)C)NC(=O)C[C@@H](/C=C/CCS)OC(=O)[C@H](C(C)C)NC1=O [Red-FK228, reference compound]
IC50 (HDAC 2): 1 nM | IC50 (HDAC 8): > 1000 nM | IC50 (HDAC 4): 647 nM | IC50 (HDAC 5): > 1000 nM | IC50 (HDAC 7): > 1000 nM | IC50 (HDAC 9): > 1000 nM | IC50 (HDAC 6): 226 nM | IC50 (HDAC 10): 0.9 nM | IC50 (HDAC 11): 0.3 nM

Cn1cnc2c(F)c(Nc3ccc(Br)cc3F)c(C(=O)NOCCO)cc21 [binimetinib, reference compound]
tumor growth delay and regressions (SKMEL2 xenograft): tumor growth delay, but few regressions | on-target PD activity, pERK (MEKi PD) (pERK): strong on-target PD activity

C=CC(=O)N1CCN(c2nc(=O)n(-c3c(C)ccnc3C(C)C)c3nc(-c4c(O)cccc4F)c(F)cc23)[C@@H](C)C1 [sotorasib]
effectiveness [14]: relative ineffectiveness | effectiveness [15]: relative ineffectiveness

CCCS(=O)(=O)Nc1ccc(F)c(C(=O)c2c[nH]c3ncc(-c4ccc(Cl)cc4)cc23)c1F [vemurafenib]
effectiveness (BRAF^V600E melanoma): relative ineffectiveness | effectiveness [16]: relative ineffectiveness
